The values below come from patent US4840947A, “Antiinflammatory and analgesic piperidin-4-yl-tetracyclic benzodiazepines and use thereas” (Hoechst-Roussel Pharmaceuticals, Inc., priority 1986, dated 1989).

Where two headings read alike, the source gives them in different places.

In general, ED50 refers to the dose that gives a 50% effect, or the effect in half of the subjects.

For test [1], the system named is 2-phenyl-1,4-benzoquinone induced writhing in mice. The experiment in a line: Phenylquinone Induced Writhing in Mice (2-phenyl-1,4-benzoquinone, analgesia). Type of test: in vivo, mouse. The note with it: for Percent Inhibition of phenylquinone induced writhing: at 20 mg/kg; for ED50: Mus musculus, sc, read-out: ED50, inhibition of phenylquinone induced writhing.
Test [2] concerns adjuvant-induced polyarthritis in rats. The experiment in a line: Adjuvant-Induced Polyarthritis In Rats. Type of test: in vivo, rat (male Charles River-Wistar Lewis). The note with it: rat, p.o.; for percent inhibition of paw volume, adjuvant-treated paw / percent inhibition of paw volume, non-injected paw: at 50 mg/kg; for ED50: po. On the procedure: This activity was measured by a procedure similar to that described by C.
Groups of 10 male Charles River-Wistar Lewis rats weighing 150 to 175 g were individually housed and maintained on a regular rat chow diet. Water was given ad libitum. The adjuvant was prepared by suspending 75 mg of Mycobacterium butyricum (Difco Laboratories, Detroit, Mich.) in 10 ml of white paraffin oil with continuous stirring for 2 hours at room temperature prior to administration. Test compounds are prepared by suspending the drug in water, adding one drop of Tween 80 per 10 ml of suspension, and homogenizing. The adjuvant suspension (0.1 ml) was injected into the footpad of the left hind paw of the rat. Test compound suspensions were administered orally (10 ml/kg) the day before adjuvant suspension injection and the administration was continued for 21 days. One group of ten rats was used for the test drug. Standard, adjuvant-injected control and non-injected control groups are run along with the test drug. Control animals received vehicle (10 ml/kg). Three doses of test drug and one dose of standard preparation were used. Injected and non-injected paw volumes were determined on the day the adjuvant suspension was given, and on subsequent days thereafter (usually days 5, 10, 18, and 21) by the method of C. A. Winter, et al., Proc. Soc.
The percent inhibition of paw volume (injected and non-injected hind paw) was calculated by the following formula: [formula]

In test [3] the test system is carrageenan-induced rat paw edema. The experiment in a line: Inhibition of Carrageenan-Induced Rat Paw Edema. Type of test: in vivo. The note with it: for Percent Inhibition of carrageenan-induced rat paw edema: at 100 mg/kg, p.o.; for ED50: po.
Where [4] appears, read: adjuvant-treated (injected) paw.
Where [5] appears, read: adjuvant-treated (injected) paw, read-out: ED50 (50% inhibition of paw volume), adjuvant-treated paw.
The mark [6] stands for this setting: non-injected paw, read-out: ED50 (50% inhibition of paw volume), non-injected paw.

Consider `CN1CCC(C2Nc3cc(F)ccc3N3CCc4cccc2c43)CC1` (stereo not shown) [9-Fluoro-6-(1-methylpiperidin-4-yl)-1,2,6,7-tetrahydrobenzo[b]pyrrolo[3,2,1-jk][1,4]benzodiazepine], for which the “Percent Inhibition of phenylquinone induced writhing” value in test [1] (mice, s.c.) came to 35%. Besides, the “percent inhibition of paw volume, adjuvant-treated paw” value in test [2] (setting [4]) was determined as 48%. Further, in test [2] (non-injected paw), the “percent inhibition of paw volume, non-injected paw” value was 116%.

`CN1CCC(C2c3cccc4c3N(CC4)c3ccccc3N2C)CC1` (stereo not shown) [7-Methyl-6-(1-methylpiperidin-4-yl)-1,2,6,7-tetrahydrobenzo[b]pyrrolo[3,2,1-jk][1,4]benzodiazepine]: the ED50 in test [1] (mice, s.c.) turned out to be 2.6 mg/kg.

As for `CCC(=O)O[C@](Cc1ccccc1)(c1ccccc1)[C@H](C)CN(C)C` [Propoxyphene, reference compound], the median effective dose (ED50) in test [1] amounted to 3.9 mg/kg.

Take `CN1CCC(C2Nc3cc(Br)ccc3N3CCc4cccc2c43)CC1` (stereo not shown) [9-Bromo-6-(1-methylpiperidin-4-yl)-1,2,6,7-tetrahydrobenzo[b]pyrrolo[3,2,1-jk][1,4]benzodiazepine]: the 50% effective dose (ED50) in test [2] (setting [5]) is 112 mg/kg; in test [2] (setting [6]), 3.6 mg/kg. Besides, the “Percent Inhibition of carrageenan-induced rat paw edema” value in test [3] came out at 40%.

Take `CN1CCC(C2c3cccc4c3N(CC4)c3ccccc3N2C(=O)OCC(Cl)(Cl)Cl)CC1` (stereo not shown) [6-(1-Methylpiperidin-4-yl)-1,2,6,7-tetrahydrobenzo[b]pyrrolo[3,2,1-jk][1,4]benzodiazepine-7-carboxylic acid, 2,2,2-trichloroethyl ester]: in test [3], the “Percent Inhibition of carrageenan-induced rat paw edema” value was determined as 44%.

Take `CN1CCC(C2Nc3ccccc3N3CCCc4cccc2c43)CC1` (stereo not shown) [7-(1-Methyl-4-piperidinyl)-2,3,7,8-tetrahydro-1H-quino[1,8-ab][1,5]benzodiazepine hemifumarate hemihydrate]: the “Percent Inhibition of phenylquinone induced writhing” value in test [1] (mice, s.c.) is 27%. Further, the “percent inhibition of paw volume, adjuvant-treated paw” value in test [2] (setting [4]) was found to be 39%. Further, the “percent inhibition of paw volume, non-injected paw” value in test [2] (non-injected paw) came to 79%. Moreover, in test [3], the “Percent Inhibition of carrageenan-induced rat paw edema” value amounted to 21%.

`CCCCC1C(=O)N(c2ccccc2)N(c2ccccc2)C1=O` [Phenylbutazone, reference compound]: the results for the ED50 in test [2] (setting [5]), in test [2] (setting [6]) and in test [3] were 14 mg/kg, 9.4 mg/kg and 50 mg/kg, respectively.

Turning to `CN1CCC(C2c3cccc4c3N(CC4)c3ccccc3N2C=O)CC1.O=CO` (stereo not shown) [7-Formyl-6-(1-methylpiperidin-4-yl)-1,2,6,7-tetrahydrobenzo[b]pyrrolo[3,2,1-jk][1,4]benzodiazepine formate], the median effective dose (ED50) in test [1] (mice, s.c.) turned out to be 0.9 mg/kg.

Turning to `CCO.CN1CCC(C2Nc3ccccc3N3CCc4cccc2c43)CC1.O=C(O)/C=C/C(=O)O` (stereo not shown) [6-(1-Methylpiperidin-4-yl)-1,2,6,7-tetrahydrobenzo[b]pyrrolo[3,2,1-jk][1,4]benzodiazepine fumarate ethanolate], in test [1] (mice, s.c.), the “Percent Inhibition of phenylquinone induced writhing” value is on record as 51%. The ED50 was 73.6 mg/kg in test [2] (setting [5]), 18.5 mg/kg in test [2] (setting [6]) and 41.5 mg/kg in test [3].

On to `CCO.CN1CCC(C2Nc3ccccc3N3CCc4cc(Br)cc2c43)CC1` (stereo not shown) [4-Bromo-6-(1-methylpiperidin-4-yl)-1,2,6,7-tetrahydrobenzo[b]pyrrolo[3,2,1-jk][1,4]benzodiazepine ethanolate], for which the “Percent Inhibition of phenylquinone induced writhing” value in test [1] (mice, s.c.) is reported as 47%.
